In experiment [1] the test system is A549 cells.
Another experiment relates to K562 cells. The experiment can be described thus: Luciferase gene expression after transfection with pCMV-GL3 plasmid (ONE-Glo Luciferase Assay System). Particulars: Example 16, in combination with the composition of the present invention or Lipofectamine LTX&PLUS reagent. It is filed as cell-based.
The subject of a further experiment is RAW264.7 cells. The description is as above. The experiment is classed as cell-based. As for the experimental part:
Gene transfer using FuGENE HD transfection reagent (Roche) was performed as follows.
Gene transfer using Polyethylenimine Max (Polyscience) was performed as follows. 13.5 μL of water was added to 1.5 μL of 1 mg/mL Polyethylenimine Max (pH of 7, MW of 25,000).

The next experiment has as its system NIH-3T3 cells. The experiment is described as above. It is filed as cell-based.
For another experiment, the system named is Jurkat cells. Described as above. To be noted: Example 12, lipid ethanol solutions ¼% or ⅕%, 5 mg/mL sericin, 1 mg/mL protamine sulfate, 15 μL/well, next day.
The test system of the next experiment is THP-1 cells. The experiment can be described thus: Gene transfer of pTurboGFP-N plasmid observed with a fluorescence microscope. It is filed as cell-based. To be noted: Example 1, 5 μL/well, next day, FIG. 3.
Experiment [2] deals with A549 cells. Described as above. The experiment is classed as cell-based. To be noted: Example 1, 5 μL/well, next day, FIG. 3.
Where [3] appears, read: Example 16, in combination with the composition of the present invention or Lipofectamine LTX&PLUS reagent.
The mark [4] stands for this setting: Example 12, lipid ethanol solutions ¼% or ⅕%, 5 mg/mL sericin, 1 mg/mL protamine sulfate, 15 μL/well, next day.
[5] abbreviates: Example 11, pCMV-GL3 in inactivated HVJ envelope (component F) in all compositions, 8.1 μL/well, next day.

Procedure for Jurkat cells: Jurkat cells, which are suspension cultured cells, were seeded in a 96-well plate at a cell density of 4×10^4 cells/well on the day of transfection.
280 μL of a 15 mg/mL sericin (Wako Pure Chemical Industries, Ltd., trade name: Pure Sericin) PBS solution was added to 20 μL of a ½% sorbitan sesquioleate (Nacalai Tesque, Inc.) ethanol solution, and the mixture was mixed by pipetting.
The inactivated HVJ envelope suspension was diluted 2-fold, 4-fold, 8-fold, 16-fold, and 32-fold with PBS. 8 μL of a 0.3% Triton X-100 PBS solution was added to 4 μL of each of these diluted, inactivated HVJ envelope suspensions, and each mixture was centrifuged at 4° C., 10,000 g for 5 minutes with a high-speed refrigerated microcentrifuge, thereby pelleting down the inactivated HVJ envelope. […] 4 μL of PBS was added to 12.5 μL of each of the individual HVJ envelope suspensions containing the plasmid or to a 1/10 mg/mL pCMV-GL3 plasmid solution, and 20 μL of the liquid mixture of sorbitan sesquioleate and sericin prepared in advance was further added to each mixture. After each of the resulting mixtures was mixed by pipetting, 6.25 μL of a 1 mg/mL protamine sulfate PBS solution was added to each mixture, thereby preparing test compositions. Each of these test compositions was added at 9.5 μL/well to the cell culture medium.
(§1) The next day, whether gene transfer was achieved was confirmed by measuring the enzyme activity (relative value) of luciferase protein produced from the pCMV-GL3 plasmid by using ONE-Glo Luciferase Assay System (Promega).
112 μL of a 15 mg/mL sericin (Wako Pure Chemical Industries, Ltd., trade name: Pure Sericin) PBS solution was added to 8 μL of a ½% sorbitan sesquioleate (Nacalai Tesque, Inc.) ethanol solution, and the mixture was mixed by pipetting.
10 μL of a 0.2% Triton X-100 PBS solution was added to 1 μL of the inactivated HVJ envelope suspension, and the mixture was centrifuged at 4° C., 10,000 g for 5 minutes with a high-speed refrigerated microcentrifuge, thereby pelletting down the inactivated HVJ envelope. […]
Procedure for K562 cells: as §1
K562 cells, which are suspension cultured cells, were seeded in a 96-well plate at a cell density of 2×10^4 cells/well on the day of transfection.
154 μL of a 15 mg/mL sericin PBS solution was added to 11 μL of a ½% sorbitan sesquioleate (Nacalai Tesque, Inc.) ethanol solution, and the mixture was mixed by pipetting.
48 μL of the prepared solution above was added to 40 μL of a 1/10 mg/mL pCMV-GL3 plasmid solution, and the mixture was mixed by pipetting. 20 μL of a 1 mg/mL protamine sulfate PBS solution was then added to prepare a test composition (prepared for each kind of cells; total of three tubes). The test composition was added at 15 μL/well to the cell culture media.
Gene transfer using Lipofectamine LTX&PLUS reagent (Invitrogen) was performed as follows. 0.7 μL of a 1 mg/mL pCMV-GL3 plasmid solution and 0.7 μL of a PLUS reagent were added to 140 μL of Opti-MEM I Reduced Serum Medium (Gibco), and the mixture was allowed to stand for 5 minutes. 2.8 μL of Lipofectamine LTX reagent was further added thereto, and the mixture was allowed to stand for 25 minutes, after which it was added at 20 μL/well to the cell culture media. […]
Procedure for NIH-3T3 cells: NIH-3T3 cells, which are adherent cultured cells, were seeded in a 96-well plate at a cell density of 4×10^3 cells/well one day before transfection.
16.8 μL of a 5 mg/mL sericin PBS solution was added to 1.2 μL of a ¼% sorbitan sesquioleate (Nacalai Tesque, Inc.) ethanol solution, and the mixture was mixed by pipetting.
16.8 μL of a 5 mg/mL sericin PBS solution was added to 1.2 μL of a ¼% sorbitan monooleate (SIGMA) ethanol solution, and the mixture was mixed by pipetting.
0.6 μL of a ⅕% L-α-dioleoyl phosphatidylethanolamine (Wako Pure Chemical Industries, Ltd.; hereinafter referred to as “DOPE”) ethanol solution or 0.6 μL of ethanol was individually added to 0.6 μL of a ⅕% cardiolipin (SIGMA) ethanol solution. 16.8 μL of a 5 mg/mL sericin PBS solution was further added to each mixture, and each of the resulting mixtures was mixed by pipetting.
15 μL of a 1/10 mg/mL pCMV-GL3 plasmid solution was added to 18 μL of each of the above prepared solutions, and each mixture was mixed by pipetting. 7.5 μL of a 1 mg/mL protamine sulfate PBS solution was then added to each of the resulting mixtures, thereby preparing test compositions. Each of these test compositions was added at 15 μL/well to the cell culture media.
11.2 μL of ¼, ½, 3, 5, 20, 30, or 50 mg/mL sericin PBS solution or PBS was individually added to 0.8 μL of a ½% sorbitan sesquioleate (Nacalai Tesque, Inc.) ethanol solution, and each mixture was mixed by pipetting.
10 μL of a 1/10 mg/mL pCMV-GL3 plasmid solution was added to 12 μL of each of the prepared solutions above, and each mixture was mixed by pipetting.

Take `O=C(NCCCNc1nc(Nc2cccc(NC(=O)N3CCCC3)c2)ncc1I)c1cccs1` [compound A, N-[3-[[5-iodo-4-[[3-[(2-thienylcarbonyl)amino]propyl]amino]-2-pyrimidinyl]amino]phenyl]-1-pyrrolidinecarboxamide]: the “improvement in gene expression by compound A used in combination with a gene transfer vector” value in the experiment on A549 cells [1] (setting [3]) was “improvement in the gene expression was confirmed”; in the experiment with K562 cells, “improvement in the gene expression was confirmed”; in the experiment with RAW264.7 cells (setting [3]), “improvement in the gene expression was confirmed”; with RAW264.7 cells (Example 17, in combination with the composition of the present invention, Lipofectamine LTX&PLUS reagent, FuGENE HD transfection reagent, or Polyethylenimine Max), “improvement in gene expression was confirmed”.

As to Sericin, the “Luciferase gene expression level (relative value)” value is reported as 346 in the experiment on NIH-3T3 cells (Example 13, Sericin concentration 0 mg/mL (PBS), with ½% sorbitan sesquioleate and 1 mg/mL protamine sulfate, 15 μL/well); 761,785 with NIH-3T3 cells (Example 13, Sericin concentration 3 mg/mL, with ½% sorbitan sesquioleate and 1 mg/mL protamine sulfate, 15 μL/well); 729,703 in the experiment with NIH-3T3 cells (Example 13, Sericin concentration 5 mg/mL, with ½% sorbitan sesquioleate and 1 mg/mL protamine sulfate, 15 μL/well); 762,661 in the experiment with NIH-3T3 cells (Example 13, Sericin concentration 20 mg/mL, with ½% sorbitan sesquioleate and 1 mg/mL protamine sulfate, 15 μL/well); 458,447 with NIH-3T3 cells (Example 13, Sericin concentration 30 mg/mL, with ½% sorbitan sesquioleate and 1 mg/mL protamine sulfate, 15 μL/well); 24,194 with NIH-3T3 cells (Example 13, Sericin concentration 50 mg/mL, with ½% sorbitan sesquioleate and 1 mg/mL protamine sulfate, 15 μL/well). Also, the “Luciferase gene expression level (relative value)” value with NIH-3T3 cells (Example 13, Sericin concentration ¼ mg/mL, with ½% sorbitan sesquioleate and 1 mg/mL protamine sulfate, 15 μL/well) is given as 77,190; with NIH-3T3 cells (Example 13, Sericin concentration ½ mg/mL, with ½% sorbitan sesquioleate and 1 mg/mL protamine sulfate, 15 μL/well) it was 285,344. Further, in the experiment on NIH-3T3 cells (Example 13, ¼ to 50 mg/mL sericin), the “gene expression compared with the case where sericin was not used” value was “gene expression was improved”.

Regarding cardiolipin, the “Luciferase gene expression level (relative value)” value in the experiment with NIH-3T3 cells (setting [4]) and in the experiment with Jurkat cells was “makes it possible to introduce a gene” each time.

As for protamine sulfate [component C], the “Luciferase gene expression level (relative value)” value in the experiment with NIH-3T3 cells (setting [5]) and with A549 cells [1] (setting [5]) was “gene transfer was observed” in each case. Moreover, the “gene transfer (green fluorescent protein TurboGFP observed with a fluorescence microscope)” value in the experiment on THP-1 cells and in the experiment on A549 cells [2] was “Almost no gene transfer” in each case.

Regarding sorbitan monooleate, the “Luciferase gene expression level (relative value)” value in the experiment on NIH-3T3 cells (setting [4]) and in the experiment on Jurkat cells was “makes it possible to introduce a gene” each time.

As to sorbitan sesquioleate, the “Luciferase gene expression level (relative value)” value in the experiment with NIH-3T3 cells (setting [4]) is “makes it possible to introduce a gene”; with NIH-3T3 cells (Example 14, Sorbitan sesquioleate concentration 1/2%, with 10 mg/mL sericin and 1 mg/mL protamine sulfate, 15 μL/well), 1,349,057; in the experiment with NIH-3T3 cells (Example 14, Sorbitan sesquioleate concentration 1/10%, with 10 mg/mL sericin and 1 mg/mL protamine sulfate, 15 μL/well) it was 291,463; in the experiment on NIH-3T3 cells (Example 14, Sorbitan sesquioleate concentration 1/50%, with 10 mg/mL sericin and 1 mg/mL protamine sulfate, 15 μL/well) it was 887; in the experiment with NIH-3T3 cells (Example 14, Sorbitan sesquioleate concentration 5/2%, with 10 mg/mL sericin and 1 mg/mL protamine sulfate, 15 μL/well) it was 425,949; with Jurkat cells, “makes it possible to introduce a gene”. Moreover, the gene expression entry with NIH-3T3 cells (Example 14, 1/50 to 5/2% sorbitan sesquioleate) is listed as “gene expression was observed”.
